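These data come from cells grown in 96-well plates and exposed to compound for 48 hours at five concentrations. GI50 is the concentration that inhibits growth by half.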 Calls of active or inactive are those of the source. Rule as the data show it: active = GI50 up to about 1.1 µM and inactive = higher.
Key:
Test in all cases: NCI-60 cell line screen, 48 h
[1] = tested on: A498
[2] = tested on: CCRF-CEM
[3] = tested on: DU-145
[4] = tested on: HCT-15
[5] = tested on: Hs-578T
[6] = tested on: M14
[7] = tested on: MCF7
[8] = tested on: NCI-H226
[9] = tested on: NCI-H23
[10] = tested on: NCI-H522
[11] = tested on: OVCAR-5
[12] = tested on: PC-3
[13] = tested on: RXF 393
[14] = tested on: SK-MEL-28
[15] = tested on: SK-MEL-5
[16] = tested on: SK-OV-3
[17] = tested on: SR
[18] = tested on: UACC-257
[19] = tested on: UACC-62
[20] = tested on: UO-31

| SMILES | GI50 [1] | GI50 [2] | GI50 [3] | GI50 [4] | GI50 [5] | GI50 [6] | GI50 [7] | GI50 [8] | GI50 [9] | GI50 [10] | GI50 [11] | GI50 [12] | GI50 [13] | GI50 [14] | GI50 [15] | GI50 [16] | GI50 [17] | GI50 [18] | GI50 [19] | GI50 [20] |
| --- | --- | --- | --- | --- | --- | --- | --- | --- | --- | --- | --- | --- | --- | --- | --- | --- | --- | --- | --- | --- |
| COc1cc(/C=C/C(=N\NS(=O)(=O)c2ccc(C)cc2)c2sc(NNC(C)=O)nc2C)ccc1O | > 100 µM (inactive) | > 100 µM (inactive) | > 100 µM (inactive) | > 100 µM | > 100 µM (inactive) | > 100 µM (inactive) | > 100 µM (inactive) | > 100 µM (inactive) | > 100 µM (inactive) | > 100 µM (inactive) | > 100 µM (inactive) | > 100 µM (inactive) | > 100 µM (inactive) | > 100 µM (inactive) | > 100 µM (inactive) | > 100 µM (inactive) | > 100 µM (inactive) | > 100 µM (inactive) | > 100 µM (inactive) | > 100 µM (inactive) |
| O=C1Sc2cc3ccccc3cc2C(=O)Sc2cc3ccccc3cc21 | > 100 µM (inactive) | 2.6 µM (inactive) | 58.7 µM (inactive) | 22.8 µM | 44.6 µM (inactive) | 27.8 µM (inactive) | 32.4 µM (inactive) | > 100 µM (inactive) | 43.3 µM (inactive) | 7.45 µM (inactive) | 36.1 µM (inactive) | 33.9 µM (inactive) | 17.7 µM (inactive) | 28.6 µM (inactive) | 50.8 µM (inactive) | > 100 µM (inactive) | 0.454 µM (active) | 27.8 µM (inactive) | 24.8 µM (inactive) | 19.5 µM (inactive) |
| C=C1C(C2(C)C(OC(C)=O)CC(=O)OC(C)(COC(C)=O)C2CC(=O)OC)C(OC=O)C(OC(=O)C(O)C(C)CC)C2(C)C(c3ccoc3)CC(=O)C12O (stereo not given) | 4.52 µM (inactive) | 0.65 µM (active) | 5.46 µM (inactive) | 4.8 µM | 8.05 µM (inactive) | > 23.8 µM (inactive) | > 25.5 µM (inactive) | 16.7 µM (inactive) | > 73.5 µM (inactive) | 0.83 µM (active) | > 100 µM (inactive) | 5.52 µM (inactive) | 2.7 µM (inactive) | 10.8 µM (inactive) | 2.94 µM (inactive) | 0.78 µM (active) | 5.36 µM (inactive) | > 100 µM (inactive) | > 30.7 µM (inactive) | 3.77 µM (inactive) |
| CSC(=Nc1nnc(-c2ccc([N+](=O)[O-])cc2)s1)SC | 31.4 µM (inactive) | > 100 µM (inactive) | > 100 µM (inactive) | > 95.5 µM | 28.3 µM (inactive) | > 90.6 µM (inactive) | 36.6 µM (inactive) | 33.7 µM (inactive) | 27.8 µM (inactive) | 15.5 µM (inactive) | > 100 µM (inactive) | > 41.9 µM (inactive) | 20 µM (inactive) | 77.4 µM (inactive) | 55.7 µM (inactive) | 27.6 µM (inactive) | > 100 µM (inactive) | > 93.1 µM (inactive) | 25.8 µM (inactive) | 27.9 µM (inactive) |
| CCc1c(Cl)nc(Cl)nc1Cl | 5.79 µM (inactive) | < 0.0121 µM (active) | 2.05 µM (inactive) | 0.0348 µM | 1.13 µM (inactive) | 0.0438 µM (active) | 0.0578 µM (active) | 0.0692 µM (active) | 0.321 µM (active) | 0.0132 µM (active) | 0.324 µM (active) | 0.698 µM (active) | 0.296 µM (active) | 1.63 µM (inactive) | 0.224 µM (active) | 3.07 µM (inactive) | 0.0188 µM (active) | 0.448 µM (active) | 0.528 µM (active) | 1.38 µM (inactive) |
| O[C@H]1[C@H](O)[C@H](O)CN2CCC[C@@H](O)[C@H]12 | > 100 µM (inactive) | > 100 µM (inactive) | > 100 µM (inactive) | > 100 µM | > 100 µM (inactive) | > 100 µM (inactive) | > 100 µM (inactive) | > 100 µM (inactive) | > 100 µM (inactive) | > 100 µM (inactive) | > 100 µM (inactive) | > 100 µM (inactive) | > 100 µM (inactive) | > 100 µM (inactive) | > 100 µM (inactive) | > 100 µM (inactive) | > 100 µM (inactive) | > 100 µM (inactive) | > 100 µM (inactive) | > 100 µM (inactive) |
| N=C(N)Nc1nc2cc([N+](=O)[O-])ccc2[nH]1 | 27 µM (inactive) | > 100 µM (inactive) | > 100 µM (inactive) | > 100 µM | > 100 µM (inactive) | > 100 µM (inactive) | 48.5 µM (inactive) | > 100 µM (inactive) | 68.7 µM (inactive) | 68.5 µM (inactive) | > 100 µM (inactive) | 81.1 µM (inactive) | 58.9 µM (inactive) | > 100 µM (inactive) | 83 µM (inactive) | > 100 µM (inactive) | > 100 µM (inactive) | 80.2 µM (inactive) | 55.1 µM (inactive) | 93.8 µM (inactive) |

From ChEMBL document CHEMBL1201862, “PubChem BioAssay data set” (2004)
